Columns and labels:
[1] = tested on: skin wounds of young and aged Fisher 344 rats; assay: Skin wound healing in young and aged rats (photographs, H & E, PCNA staining); assay type: in vivo, rat; conditions: for epithelialization (H & E) of aged wounded rats: day 4, compared to control untreated groups; for PCNA staining in aged rats: wound sections, versus very weak staining in control aged rats; for number of PCNA positive cells / wound healing rate (photographs of wounds): young and aged rats; for number of PCNA positive cells: wound sections (FIG. 9B, 9C); for wound healing rate (photographs of wounds): LPA 30 μM, ACI 300 μM, 200 μl topical once per two days, 4th day (FIG. 7)
Procedure: Rats were anesthetized with intraperitoneal injection of ketamine and xylazine. The back was shaved (A) and four full-thickness circular skin wounds of 1.0 cm diameter were cut (B). A teflon wound chamber was glued into the edge of the skin and then sewn using a […] (C).
Young and old rats were anesthetized and wounded as described in the legend of FIG. 1. 200 μl aliquots of the solutions containing LPA (30 μM), ACI (300 μM), and the mixture of LPA and ACI dissolved in physiological saline were applied onto wound sites using a sterile glass filter in each wound chamber once per two days. After 4 days, the wounds were photographed.
Young and old rats were anesthetized and wounded as described in the legend of FIG. 1. The wounds were treated with LPA (30 μM), ACI (300 μM), or the mixture of LPA and ACI as described in the legend of FIG. 1c. On postoperative days 4, animals were anesthetized and killed as described in “Materials and Methods”. Approximately 5-mm-thick section across the dorsoventral diameter of the wound was cut and fixed and embedded in paraffin. Serial sections were cut and processed for hematoxylin-eosin (H & E) staining. H & E stained epithelial layer was visualized on the top of each section.
Young and aged rats were anesthetized and wounded as described in the legend of FIG. 1. The wounds were treated with LPA (30 μM), ACI (300 μM), or the mixture of LPA and ACI as described in the legend of FIG. 1c. On postoperative days 2, 4, and 7, animals were anesthetized and killed as described in “Materials and Methods”. An about 5-mm-thick section across the dorsoventral diameter of the wound was cut and fixed and embedded in paraffin. Serial sections were cut and processed for immunohistochemistry using PCNA as described in “Materials and Methods”. The presence of PCNA was visualized by using avidin-biotin peroxidase complex method and the control was counterstained with hematoxylin. The photographs from postoperative days 4 are shown in A. The number of PCNA positive cell was counted from each photograph and plotted in B (young rats) and C (aged rats).
Rats aged 6 months and 24 months which were used in experiments were purchased from Samtaco BioKorea (Seoul, Korea) and housed two per cage in a room with controlled temperature and humidity with a 12:12-h light-dark cycle. They were maintained on a standard diet with food and water ad libitum in an animal facility accredited by the Korean Association for Accreditation of Laboratory Animal Care. Animals were divided into treatment groups, each consisting of nine, and used in experiments.
Rats were anesthetized with intraperitoneal injection of ketamine and xylazine (87/13 mg/kg). Skin wounding and its protection was performed as described by Balazs (Balazs et al., 2001). By the dermabrasion technique using diamond bar, four second-degreed partial thickness circular wounds of 1.0 cm. A teflon wound chamber with a 1.2 cm inner diameter centered around the wound was glued into the edge of the skin with Histoacryl and then sewn using a surgical nylon suture (Ethicon 4-0) (FIG. 1C). In order to protect wound site, upon treatment with LPA or ACI, they were sprayed using a sterile filter (GF-C Whatman), followed by treatment. This work was carried out by a single plastic surgeon for consistency and exactness of experiments. 30 μM of LPA, 300 μM of ACI, and the mixture of LPA (30 μM) and ACI (300 μM) are dissolved in physiological saline to be a 200-μl aliquot, respectively. The 200-μl aliquot, corresponding to 30 pmol/mm^2, was applied […] into the wound of the animals anesthetized with inhalation. The contralateral side received 200 μl of saline as a control. […]
Serial sections (4 […]μm thick) were cut and processed for hematoxylin-eosin (H & E) and immunohistological staining. Paraffin sections on the microslides were deparaffinized in xylene and rehydrated sequentially in alcohol. […]

[2] = tested on: young and senescent fibroblasts, HUVEC, skin keratinocytes; assay: Cell growth / proliferation (cell number count); assay type: cell-based, human; conditions: for cell number in senescent cells of various cell types: senescent fibroblasts, old donor fibroblasts, HUVEC, keratinocytes, degree depends on cell type (FIG. 5)
Procedure: Sub-cultured young (PD 25, A) and senescent (PD 73, B) fibroblasts were serum-starved for 2 days and treated with LPA, 1 mM of dbcAMP (+dbcAMP), or 300 μM of ACI SQ22536 (+ACI) for 4 days. The number of cells was counted. The results shown represent the means±standard deviation of a representative experiment.
Sub-cultured young (PD 25) and senescent (PD 73) cells (A), fibroblasts from young and elderly donors (B), HUVEC (C) and skin keratinocytes (D) were serum-starved for 2 days and treated with LPA, and then treated with 1 mM of dibutyryl-cAMP, or 300 μM of ACI (SQ22536) for 4 days. The number of cells was counted. The results shown represent the means±standard deviation of a representative experiment.
(§1) Human umbilical vein endothelial cells (HUVEC) were isolated from endothelial cells of umbilical cords as described by Whang et al (Whang et al., 2005). Foreskin human fibroblasts and keratinocytes were isolated from newborn foreskins as described by Boyce and Ham (Boyce and Ham, 1983). Patient consents were obtained from all donors and the use of tissue samples was approved by the ethics committee of the Seoul National University. The obtained and isolated fibroblasts and HUVEC were maintained in DMEM containing 10% fetal bovine serum (FBS) and antibiotics, and keratinotyes were in keratinocyte growth medium (KGM) containing antibiotics. Cells from the early stage of culture were cultured to obtain aged cells, which were used in experiments (population doubling -PD- of less than 25 vs PD 65-70 in fibroblasts, PD less than 5 vs PD 10-12 in case of HUVEC). Senescent cells were characterized by morphological changes, enhanced […]β-galactosidase activity and a reduced rate of proliferation (Yeo et al., 2000). Cells were grown for 2 days to 60-70% sub-confluency in the culture medium after treatment with LPA or ACI, and then serum-starved to quiescence by incubating them with either serum free DMEM containing 0.1% BSA (fibroblasts or HUVEC) or KBM (keratinocytes) for 2 days.

[3] = tested on: cAMP level in young and senescent fibroblasts; assay: Measurement of cyclic AMP (cAMP) by competitive binding assay; assay type: cell-based, human
Procedure: Sub-cultured young (PD 20) and senescent (PD 65) fibroblasts were treated with various concentrations of ACI for 1 hr. The level of cAMP in the acid extracts was measured by using a cAMP binding assay. The results shown represent the means±standard deviation of a representative experiment.
as §1
After removing the medium, 2.5 M of perchloric acid was added into the plate. The obtained acid extract was stored at […] until use, when the extract was neutralized with 4.2 M KOH and the cAMP content was determined by competitive binding with [^3H]-cAMP to the cAMP binding protein, RIα[…] of cAMP-dependent protein kinase (Jang and Juhnn, 2001). After the extraction, cells were lysed with 0.1 N NaOH and protein content was determined using Bradford protein assay reagent. The cAMP content was normalized versus the amount of acid-insoluble protein (expressed as the content of cAMP per protein concentration).

Molecule	epithelialization (H & E) of aged wounded rats [1]	PCNA staining in aged rats [1]	number of PCNA positive cells [1]	wound healing rate (photographs of wounds) [1]	proliferation of aged cells compared to treatment with LPA ([2]; aged fibroblasts)	cell number in senescent cells following ACI treatment ([2]; senescent fibroblasts (PD 73), 300 μM ACI, 4 days, unlike young cells (FIG. 3B))	cell number in senescent cells of various cell types ([2]; 4 days)	cAMP levels at 300 μM ([3]; 300 μM ACI, both young and senescent cells (FIG. 2))	concentration of cAMP in aged cells upon treatment with ACI ([3]; aged fibroblasts, ACI)	cAMP levels ([3]; various concentrations of ACI, 1 hr, young (PD 20) and senescent (PD 65) fibroblasts (FIG. 2))	cell number (proliferation) ([2]; LPA 1-70 μM, 4 days, young and senescent fibroblasts (FIG. 3))	concentration of cAMP in aged cells ([3]; aged fibroblasts, treatment with LPA)	concentration of cAMP in young cells ([3]; young fibroblasts, treatment with LPA)
Nc1ncnc2c1ncn2C1CCCO1 (stereo not drawn) [ACI, 9-(tetrahydro-2′-furyl)adenine]	higher	increased significantly	increased significantly	faster than the untreated controls	more increased	significant increase in the cell number	further enhanced	complete abrogation	again lowered	dose-dependently reduced cAMP levels			
lysophosphatidic acid [LPA]	higher	increased significantly	increased significantly	faster than the untreated controls			further enhanced				induces proliferation of both young and senescent cells in a dose-dependent manner	increased	lowered

Reference: patent US20120083472A1, “PHARMACEUTICAL COMPOSITION FOR PROMOTING THE HEALING OF WOUNDS AND CONTAINING LYSOPHOSPHATIDIC ACID AND AN ADENYLYL CYCLASE INHIBITOR AS ACTIVE INGREDIENTS” (SNU R&DB FOUNDATION, priority 2009, published 2012)
